Key:
human α4β2-nAChRs = conditions: competitive antagonist of human α4β2-nAChRs; cited from earlier work
CPP produced by nicotine = conditions: rodents; cited from earlier work
α3β4-nAChR = α3β4-nAChR (Rattus norvegicus, UniProt P04757+P12392); format: cell-based; conditions: 100 µM compound, rat α3β4 in Xenopus oocytes
[1] = test system: nicotine self-administration; conditions: rodents; cited from earlier work
nAChR [2] = format: in vivo; conditions: mouse, s.c., tested 5 min after injection
nAChR [3] = format: in vivo; conditions: mouse, s.c., tested 5 min after injection; (confidence limits)
[4] = test system: discriminative stimulus effects of nicotine; conditions: rodents; cited from earlier work
[5] = test system: nicotine's ability to facilitate ICSS; conditions: rodents; cited from earlier work
nAChR [6] = format: in vivo; conditions: mouse, s.c.
α4β2-nAChR [7] = target: T1, α4β2-nAChR (Rattus norvegicus, UniProt P09483+P12390); format: cell-based
Target sequence in this assay (P09483 31-630): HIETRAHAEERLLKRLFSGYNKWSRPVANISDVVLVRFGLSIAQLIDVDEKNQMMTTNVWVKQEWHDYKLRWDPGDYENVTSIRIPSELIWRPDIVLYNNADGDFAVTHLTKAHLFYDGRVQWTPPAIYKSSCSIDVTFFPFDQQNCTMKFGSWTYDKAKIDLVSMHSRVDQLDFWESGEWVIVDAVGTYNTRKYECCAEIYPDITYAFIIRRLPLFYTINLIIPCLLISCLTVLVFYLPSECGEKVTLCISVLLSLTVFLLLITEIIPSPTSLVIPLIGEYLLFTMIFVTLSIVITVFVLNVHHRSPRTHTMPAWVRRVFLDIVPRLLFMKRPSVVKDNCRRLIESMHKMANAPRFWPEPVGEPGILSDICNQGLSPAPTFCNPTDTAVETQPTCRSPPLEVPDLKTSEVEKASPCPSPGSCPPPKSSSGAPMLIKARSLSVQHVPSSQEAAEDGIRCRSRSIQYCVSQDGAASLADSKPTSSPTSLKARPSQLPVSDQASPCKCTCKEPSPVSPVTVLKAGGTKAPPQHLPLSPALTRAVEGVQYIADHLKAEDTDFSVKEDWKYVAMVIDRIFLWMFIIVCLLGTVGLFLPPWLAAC
Target sequence in this assay (P12390 25-500): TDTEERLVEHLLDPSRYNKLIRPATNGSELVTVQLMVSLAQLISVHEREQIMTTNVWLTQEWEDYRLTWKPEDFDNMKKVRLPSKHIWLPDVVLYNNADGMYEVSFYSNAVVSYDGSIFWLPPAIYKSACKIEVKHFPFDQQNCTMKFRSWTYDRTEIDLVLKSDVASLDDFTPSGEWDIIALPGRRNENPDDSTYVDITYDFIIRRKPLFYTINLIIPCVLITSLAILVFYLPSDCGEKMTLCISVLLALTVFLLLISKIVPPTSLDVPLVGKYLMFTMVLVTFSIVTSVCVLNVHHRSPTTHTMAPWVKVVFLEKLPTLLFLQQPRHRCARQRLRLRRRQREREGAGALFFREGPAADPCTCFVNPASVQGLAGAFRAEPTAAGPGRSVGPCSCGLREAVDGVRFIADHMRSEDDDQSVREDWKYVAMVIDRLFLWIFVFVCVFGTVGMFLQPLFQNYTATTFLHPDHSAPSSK

nAChR [8] = format: in vivo; conditions: mouse, s.c., 30 min
nAChR [9] = test: Antagonism of nicotine-induced antinociception, hot-plate test; format: in vivo; conditions: mouse
α4β2-nAChR [10] = target: T1, α4β2-nAChR; format: binding; conditions: Ki ratio
Target sequence in this assay (P12390 25-500): as above
Target sequence in this assay (P09483 31-630): as the sequence (P09483 31-630) above

α4β2 = conditions: read-out: Antagonist Activity IC50 α4β2; cited from earlier work

Chain of α3β4-nAChR (P04757 26-499): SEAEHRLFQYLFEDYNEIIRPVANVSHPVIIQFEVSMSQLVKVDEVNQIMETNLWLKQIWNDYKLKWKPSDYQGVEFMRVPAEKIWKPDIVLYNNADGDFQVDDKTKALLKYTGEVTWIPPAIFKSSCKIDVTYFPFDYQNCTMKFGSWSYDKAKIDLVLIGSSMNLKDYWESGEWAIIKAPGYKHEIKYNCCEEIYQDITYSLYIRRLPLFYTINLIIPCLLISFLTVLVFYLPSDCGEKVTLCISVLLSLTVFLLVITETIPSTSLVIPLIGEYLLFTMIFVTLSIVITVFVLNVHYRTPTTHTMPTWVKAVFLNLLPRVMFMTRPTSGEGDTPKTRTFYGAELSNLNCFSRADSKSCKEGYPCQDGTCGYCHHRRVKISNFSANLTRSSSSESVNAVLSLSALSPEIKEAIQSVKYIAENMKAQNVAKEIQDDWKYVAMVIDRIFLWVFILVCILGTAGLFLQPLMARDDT
Chain of α3β4-nAChR (P12392 21-495): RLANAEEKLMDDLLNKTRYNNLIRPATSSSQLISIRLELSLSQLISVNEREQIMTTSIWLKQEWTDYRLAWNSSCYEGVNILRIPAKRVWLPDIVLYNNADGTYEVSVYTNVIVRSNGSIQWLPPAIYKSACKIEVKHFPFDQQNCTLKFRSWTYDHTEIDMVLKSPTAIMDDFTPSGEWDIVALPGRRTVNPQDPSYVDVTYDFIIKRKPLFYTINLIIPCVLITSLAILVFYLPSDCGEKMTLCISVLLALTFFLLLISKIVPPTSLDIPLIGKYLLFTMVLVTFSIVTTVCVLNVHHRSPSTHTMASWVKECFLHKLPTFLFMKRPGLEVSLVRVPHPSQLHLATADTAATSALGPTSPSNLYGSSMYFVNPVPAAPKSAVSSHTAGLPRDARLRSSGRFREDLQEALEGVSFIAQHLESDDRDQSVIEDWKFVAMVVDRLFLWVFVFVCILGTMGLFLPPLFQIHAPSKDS

## O=[N+]([O-])c1ccc(-c2cc(C3CC4CCC3N4)cnc2F)cc1 (stereo not drawn) [Compound 5a, 2'-fluoro-3'-(4-nitrophenyl)deschloroepibatidine]
Human α4β2-nAChRs
  potency higher than that of dihydro-β-erythroidine (6): 17 fold
CPP produced by nicotine
  effect on CPP produced by nicotine: blocked
α3β4-nAChR
  Agonist Activity (% of max ACh at 100 µM of Compd) α3β4: low level of agonist activity
[1]
  effect on i.v. nicotine self-administration: dose-dependently blocked
nAChR [2]
  ED50 Hot-Plate: no functional activity
nAChR [3]
  ED50 Tail-Flick: no functional activity
[4]
  effect on discriminative stimulus effects of nicotine: attenuated
[5]
  effect on nicotine's ability to facilitate ICSS: reduced

## Fc1ncc(C2CC3CCC2N3)cc1-c1ccc(C(F)(F)F)cc1 (stereo not drawn) [Compound 5b, 2'-Fluoro-3'-(4'-trifluoromethylphenyl)deschloroepibatidine]
α3β4-nAChR
  Agonist Activity (% of max ACh at 100 µM of Compd) α3β4: lacked agonist activity
nAChR [6]
  ED50 Spontaneous Activity: no activity
α4β2-nAChR [7]; electrophysiology, IC50 ratio
  selectivity for α4β2- over α3β4-nAChR (antagonist potency): no selectivity
  selectivity for α4β2- over α7-nAChR (antagonist potency): no selectivity
nAChR [8]
  ED50 Hypothermia: no activity
nAChR [9]
  AD50 Hot-Plate: antagonists in the hot-plate test

## N#Cc1ccc(-c2cc(C3CC4CCC3N4)cnc2F)cc1 (stereo not drawn) [Compound 5c, 2'-Fluoro-3'-(4-cyanophenyl)deschloroepibatidine]
α3β4-nAChR
  Agonist Activity (% of max ACh at 100 µM of Compd) α3β4: low level of agonist activity
nAChR [6]
  ED50 Spontaneous Activity: no activity
nAChR [8]
  ED50 Hypothermia: no activity

## CS(=O)(=O)c1ccc(-c2cc(C3CC4CCC3N4)cnc2F)cc1 (stereo not drawn) [Compound 5d, 2'-Fluoro-3'-(4-methanesulfonylphenyl)deschloroepibatidine]
nAChR [6]
  ED50 Spontaneous Activity: no activity
nAChR [8]
  ED50 Hypothermia: no activity
nAChR [9]
  AD50 Hot-Plate: antagonists in the hot-plate test

## NS(=O)(=O)c1ccc(-c2cc(C3CC4CCC3N4)cnc2F)cc1 (stereo not drawn) [Compound 5e, 2'-Fluoro-3'-(4-aminosulfonylphenyl)deschloroepibatidine]
nAChR [6]
  ED50 Spontaneous Activity: no activity
nAChR [8]
  ED50 Hypothermia: no activity

## O=S(=O)(c1ccc(-c2cc(C3CC4CCC3N4)cnc2F)cc1)C(F)(F)F (stereo not drawn) [Compound 5f, 2'-Fluoro-3'-(4-trifluoromethanesulfonylphenyl)deschloroepibatidine]
α3β4-nAChR
  Agonist Activity (% of max ACh at 100 µM of Compd) α3β4: low level of agonist activity
nAChR [6]
  ED50 Spontaneous Activity: only active in the spontaneous activity test

## NC(=O)c1ccc(-c2cc(C3CC4CCC3N4)cnc2F)cc1 (stereo not drawn) [Compound 5g, 2'-Fluoro-3'-(4-carbamoylphenyl)deschloroepibatidine]
α3β4-nAChR
  Agonist Activity (% of max ACh at 100 µM of Compd) α3β4: low level of agonist activity
nAChR [6]
  ED50 Spontaneous Activity: only active in the hypothermia and spontaneous activity tests
α4β2-nAChR [7]; 100 µM compound, rat α4β2 in Xenopus oocytes
  Agonist Activity (% of max ACh at 100 µM of Compd) α4β2: low level of agonist activity
α4β2-nAChR [10]
  selectivity for α4β2 over α7 in radioligand binding assays: > 15,000 fold
nAChR [8]
  ED50 Hypothermia: only active in the hypothermia and spontaneous activity tests

## c1cnc2cc3c(cc2n1)[C@@H]1CNC[C@H]3C1 [varenicline]
α4β2
  IC50: 200 ± 30 nM
